Measured values published in ChEMBL document CHEMBL1122399, “Synthesis and antibacterial activities of new (alpha-hydrazinobenzyl)cephalosporins” (1983).
Converted amounts (≈) assume the structure as drawn.

Tests used:
Assay type in all cases: functional
Bacteria [1] = assay: In vitro antibacterial activity was determined by 2 fold serial agar dilution method with multilocular device in gram negative bacteria
Bacteria [2] = assay: In vitro antibacterial activity was determined by 2 fold serial agar dilution method in gram negative resistant bacteria
[3] = In vitro antibacterial activity was determined by 2 fold serial agar dilution method in gram positive resistant bacteria
[4] = In vitro antibacterial activity was determined by 2 fold serial agar dilution method with multilocular device in gram positive bacteria

Compound | MIC (Bacteria [1]) [µg/mL] | MIC (Bacteria [2]) [µg/mL] | MIC [3] [µg/mL] | MIC [4] [µg/mL]
CC1=C(C(=O)O)N2C(=O)[C@@H](NC(=O)C(c3ccccc3)N(C)N)C2SC1 (stereo partly specified) | 100 (≈ 266 µM) | > 100 | 50 (≈ 133 µM) | 6.74 (≈ 17.9 µM)
NNC(C(=O)N[C@@H]1C(=O)N2C(C(=O)O)=C(Cl)CSC12)c1ccccc1 (stereo partly specified) | 21.4 (≈ 55.9 µM) | 50 (≈ 131 µM) | 31.4 (≈ 82 µM) | 1.33 (≈ 3.47 µM)
CC(=O)OCC1=C(C(=O)O)N2C(=O)[C@@H](NC(=O)C(c3ccccc3)N(C)N)C2SC1 (stereo partly specified) | 54.5 (≈ 125 µM) | > 100 | 24.9 (≈ 57.3 µM) | 1.33 (≈ 3.06 µM)
CC1=C(C(=O)O)N2C(=O)[C@@H](NC(=O)C(NN)c3ccccc3)C2SC1 (stereo partly specified) | > 100 | – | 62.9 (≈ 174 µM) | 12.5 (≈ 34.5 µM)
CC(=O)OCC1=C(C(=O)O)N2C(=O)[C@@H](NC(=O)C(NN)c3ccccc3)C2SC1 (stereo partly specified) | 73.4 (≈ 175 µM) | > 100 | 31.5 (≈ 74.9 µM) | 1.68 (≈ 4 µM)
N[C@@H](C(=O)N[C@@H]1C(=O)N2C(C(=O)O)=C(Cl)CS[C@H]12)c1ccccc1 [CEFACLOR ANHYDROUS] | 1 (≈ 2.72 µM) | 7.8 (≈ 21.2 µM) | 15.7 (≈ 42.7 µM) | 0.16 (≈ 0.435 µM)
CC1=C(C(=O)O)N2C(=O)[C@@H](NC(=O)[C@H](N)c3ccccc3)[C@H]2SC1 [CEPHALEXIN ANHYDROUS] | 5.7 (≈ 16.4 µM) | 7.8 (≈ 22.5 µM) | 24.9 (≈ 71.7 µM) | 0.58 (≈ 1.67 µM)
CC(=O)OCC1=C(C(=O)O)N2C(=O)[C@@H](NC(=O)[C@H](N)c3ccccc3)[C@H]2SC1 [CEPHALOGLYCIN] | 8.5 (≈ 21 µM) | 79.3 (≈ 196 µM) | 19.8 (≈ 48.8 µM) | 1.33 (≈ 3.28 µM)
